From patent US10351565B2, “Therapeutic compounds for pain and synthesis thereof” (priority 2015, dated 2019)
“And” between values parts separate entries of the source, which are not always exact repeats. Equal entries are not always repeated.

Key:
[1] = system: neuropathic pain in mice; assay: Taxol mouse model of neuropathic pain, repeated daily administration; type: in vivo
Description: (§1) Table 7 summarizes the activity of Formula 1 in mice models of neuropathic pain following repeated daily administration using different routes of administration.

[2] = system: neuropathic pain in mice; assay: CCI mouse model of neuropathic pain, repeated daily administration; type: in vivo; conditions: for Dose of maximum activity: doses tested 150 mg/kg
Description: as §1

[3] = PO, 30 mg/kg, repeated daily administration
[4] = SC, doses tested 1, 3, 10 mg/kg, repeated daily administration
[5] = SC, 150 mg/kg, repeated daily administration

Row | Structure (SMILES) | Duration of activity at maximum effect [1, 3] [H] | Level of activity (% of maximum effect- baseline) [1, 3] [%] | Peak of activity (T) [1, 3] | Dose of maximum activity ([1]; PO, doses tested 30 mg/kg) [mg/kg] | Dose of maximum activity ([1]; SC, doses tested 1, 3, 10 mg/kg) [mg/kg] | Duration of activity at maximum effect [1, 4] [h] | Level of activity (% of maximum effect- baseline) [1, 4] [%] | Dose of maximum activity ([1]; PO, doses tested 150 mg/kg) [mg/kg] | Dose of maximum activity ([1]; SC, doses tested 150 mg/kg) [mg/kg] | Dose of maximum activity ([2]; IP) [mg/kg] | Duration of activity at maximum effect [2, 5] | Level of activity (% of maximum effect- baseline) [2, 5] | Peak of activity (T) [2, 5] | Dose of maximum activity ([2]; SC) [mg/kg]
1 | COc1ccc2cc(CN3[C@@H]4C[C@@H]5C[C@H]3[C@H](OC(=O)C(C)(C)C)C4N(C(=O)CC(F)(F)F)C5)ccc2c1 (stereo partly drawn) [Formula 1, (2S,3S,6R,7aR)-1-((6-methoxynaphthalen-2-yl)methyl)-4-(3,3,3-trifluoropropanoyl)octahydro-1H-2,6-methanopyrrolo[3,2-b]pyridin-3-yl pivalate] | 24 | 100 | 2-24 H | <30 | 1 | 24 | 100 |  |  |  |  |  |  | 
2 | NCC1(CC(=O)O)CCCCC1 [Gabapentin] |  |  |  |  |  |  |  | 150 | 150 | 150 | 4-6 H | >100% and 64% | 2-3 H | 150
